The text below walks through data of ChEMBL document CHEMBL1201862, “PubChem BioAssay data set” (2004).

The target of experiment [1] is T1, Calpain-2 catalytic subunit (Sus scrofa, UniProt P43367).
T1 sequence (P43367 whole entry): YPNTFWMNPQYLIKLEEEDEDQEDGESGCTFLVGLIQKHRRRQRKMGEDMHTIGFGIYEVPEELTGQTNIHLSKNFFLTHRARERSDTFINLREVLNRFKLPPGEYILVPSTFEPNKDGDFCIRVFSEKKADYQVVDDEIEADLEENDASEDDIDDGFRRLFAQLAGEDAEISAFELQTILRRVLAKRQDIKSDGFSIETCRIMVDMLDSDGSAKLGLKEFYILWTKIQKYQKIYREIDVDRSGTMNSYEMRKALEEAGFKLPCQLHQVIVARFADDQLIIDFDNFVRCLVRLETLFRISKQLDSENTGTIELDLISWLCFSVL
Nature of the experiment: pig calpain II inhibitor potency, dose response, biochemical, fluorogenic peptide substrate (AID 1420). The experiment is classed as functional.

The next experiment in a line: cells. Type of experiment: functional.
In a further experiment the target is Large T antigen (Simian virus 40, UniProt P03070). The experiment is classed as functional, Betapolyomavirus macacae.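 Also: Confirmatory-stage PubChem screen for compounds that inhibit SV40 T antigen.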
Sequence of Large T antigen (P03070 whole entry): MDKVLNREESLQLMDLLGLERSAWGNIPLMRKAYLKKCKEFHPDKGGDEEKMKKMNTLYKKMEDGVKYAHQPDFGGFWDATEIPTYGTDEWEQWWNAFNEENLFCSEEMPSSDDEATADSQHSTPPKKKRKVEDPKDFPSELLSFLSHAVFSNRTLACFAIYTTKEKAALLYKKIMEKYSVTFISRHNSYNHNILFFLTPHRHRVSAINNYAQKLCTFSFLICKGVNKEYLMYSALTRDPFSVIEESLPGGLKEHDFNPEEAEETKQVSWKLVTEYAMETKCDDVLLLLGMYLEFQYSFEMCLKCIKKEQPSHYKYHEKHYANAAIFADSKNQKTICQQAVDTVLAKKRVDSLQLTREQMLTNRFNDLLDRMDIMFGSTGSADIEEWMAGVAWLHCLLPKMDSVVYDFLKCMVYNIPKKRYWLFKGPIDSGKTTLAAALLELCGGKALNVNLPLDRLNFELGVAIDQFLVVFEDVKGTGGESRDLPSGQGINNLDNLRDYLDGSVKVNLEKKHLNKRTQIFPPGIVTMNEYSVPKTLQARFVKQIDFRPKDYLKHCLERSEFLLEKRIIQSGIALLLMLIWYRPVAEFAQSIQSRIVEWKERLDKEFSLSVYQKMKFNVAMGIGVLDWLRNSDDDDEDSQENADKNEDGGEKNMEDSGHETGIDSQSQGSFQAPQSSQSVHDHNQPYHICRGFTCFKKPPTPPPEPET
A further experiment has as its target Genome polyprotein (dengue virus type 2, UniProt P29990). Kind of experiment: Dengue-2 NS5 methyltransferase inhibitors, primary screen, biochemical, confirmation dose response (AID 588689). The experiment is classed as functional.
The next experiment relates to H9c2. Kind of experiment: cells. Type of experiment: functional, cell-based. To be noted: Rattus norvegicus, H9c2, Myocardium.
In experiment [2] the target is T2, Rac GTPase-activating protein 1 (Homo sapiens, UniProt Q9H0H5).
T2 sequence (Q9H0H5 whole entry): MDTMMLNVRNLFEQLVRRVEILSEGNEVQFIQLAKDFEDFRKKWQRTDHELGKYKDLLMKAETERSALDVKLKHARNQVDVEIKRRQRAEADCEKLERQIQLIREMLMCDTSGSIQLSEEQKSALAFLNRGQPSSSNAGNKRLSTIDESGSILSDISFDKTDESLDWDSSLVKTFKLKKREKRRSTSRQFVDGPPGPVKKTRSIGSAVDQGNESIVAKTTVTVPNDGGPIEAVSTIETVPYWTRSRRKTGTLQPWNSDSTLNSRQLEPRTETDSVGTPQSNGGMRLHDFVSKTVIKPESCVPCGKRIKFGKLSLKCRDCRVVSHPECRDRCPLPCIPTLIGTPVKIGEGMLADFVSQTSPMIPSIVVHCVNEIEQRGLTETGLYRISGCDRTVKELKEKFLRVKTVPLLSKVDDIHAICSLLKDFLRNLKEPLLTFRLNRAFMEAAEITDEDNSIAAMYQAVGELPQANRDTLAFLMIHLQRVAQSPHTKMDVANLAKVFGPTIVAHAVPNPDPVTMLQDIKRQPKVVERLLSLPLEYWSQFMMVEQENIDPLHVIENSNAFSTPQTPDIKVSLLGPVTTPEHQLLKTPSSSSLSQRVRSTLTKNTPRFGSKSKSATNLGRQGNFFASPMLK
Kind of experiment: MgcRacGAP GTPase-activating activity inhibitors, confirmation, biochemical, ADP Hunter fluorescence, primary and confirmatory (AID 624330). Type of experiment: functional.

Experiment [3] is described as follows: inhibitors of intracellular T. cruzi replication, confirmation, NIH3T3 host cells, beta-gal luminescence (AID 2044).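 Also: intracellular parasites grown in NIH/3T3 mouse fibroblasts as host cells; luminescent beta-galactosidase reporter signal from transgenic T. cruzi replicating inside host cells; inhibitors lower the luminescence signal.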 Type of experiment: functional, cell-based.
Experiment [4] in a line: cytotoxicity toward NIH3T3 fibroblasts, dose response, counter-screen, cell-based, ATP luminescence, mouse fibroblasts (AID 2010).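 Also: cells exposed to compound for about 90 hours before reading.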 The experiment is classed as functional.
The target in experiment [5] is FAD-linked sulfhydryl oxidase ALR (Homo sapiens, UniProt P55789). Kind of experiment: inhibitors of human ALR sulfhydryl oxidase, dose response, biochemical, H2O2 detection, luminescence, cherry-pick (AID 493248).
Sequence of FAD-linked sulfhydryl oxidase ALR (P55789 whole entry): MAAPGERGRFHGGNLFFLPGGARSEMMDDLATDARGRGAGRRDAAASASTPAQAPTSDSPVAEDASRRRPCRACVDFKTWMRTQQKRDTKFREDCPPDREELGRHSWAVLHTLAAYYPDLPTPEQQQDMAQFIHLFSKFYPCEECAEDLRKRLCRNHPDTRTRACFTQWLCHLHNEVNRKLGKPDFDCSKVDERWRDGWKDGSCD
The target of the next experiment is Cytochrome P450 2D6 (Homo sapiens, UniProt P10635).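 Also: CYP2D6 member of a cytochrome P450 panel assay.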
Sequence of Cytochrome P450 2D6 (P10635 whole entry): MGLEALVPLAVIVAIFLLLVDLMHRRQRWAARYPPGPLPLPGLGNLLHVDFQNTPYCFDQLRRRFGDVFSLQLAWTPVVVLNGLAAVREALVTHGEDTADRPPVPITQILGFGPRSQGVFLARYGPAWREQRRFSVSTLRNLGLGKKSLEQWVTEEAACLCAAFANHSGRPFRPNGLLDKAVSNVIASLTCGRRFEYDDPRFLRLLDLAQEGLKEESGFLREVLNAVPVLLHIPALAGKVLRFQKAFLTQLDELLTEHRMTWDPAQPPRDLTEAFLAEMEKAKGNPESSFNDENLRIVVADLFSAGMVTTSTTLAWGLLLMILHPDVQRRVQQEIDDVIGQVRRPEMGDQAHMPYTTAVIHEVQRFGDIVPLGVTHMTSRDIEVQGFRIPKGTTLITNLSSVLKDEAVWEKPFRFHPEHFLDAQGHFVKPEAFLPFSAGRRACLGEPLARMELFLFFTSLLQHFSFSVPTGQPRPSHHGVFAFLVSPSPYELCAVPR
Experiment [6] concerns the target Induced myeloid leukemia cell differentiation protein Mcl-1 (Homo sapiens, UniProt Q07820). The experiment is classed as functional.

Calls of active or inactive are those of the source. Some results are limits rather than exact numbers.

Sequence of Genome polyprotein (P29990 2492-3391 limits assumed): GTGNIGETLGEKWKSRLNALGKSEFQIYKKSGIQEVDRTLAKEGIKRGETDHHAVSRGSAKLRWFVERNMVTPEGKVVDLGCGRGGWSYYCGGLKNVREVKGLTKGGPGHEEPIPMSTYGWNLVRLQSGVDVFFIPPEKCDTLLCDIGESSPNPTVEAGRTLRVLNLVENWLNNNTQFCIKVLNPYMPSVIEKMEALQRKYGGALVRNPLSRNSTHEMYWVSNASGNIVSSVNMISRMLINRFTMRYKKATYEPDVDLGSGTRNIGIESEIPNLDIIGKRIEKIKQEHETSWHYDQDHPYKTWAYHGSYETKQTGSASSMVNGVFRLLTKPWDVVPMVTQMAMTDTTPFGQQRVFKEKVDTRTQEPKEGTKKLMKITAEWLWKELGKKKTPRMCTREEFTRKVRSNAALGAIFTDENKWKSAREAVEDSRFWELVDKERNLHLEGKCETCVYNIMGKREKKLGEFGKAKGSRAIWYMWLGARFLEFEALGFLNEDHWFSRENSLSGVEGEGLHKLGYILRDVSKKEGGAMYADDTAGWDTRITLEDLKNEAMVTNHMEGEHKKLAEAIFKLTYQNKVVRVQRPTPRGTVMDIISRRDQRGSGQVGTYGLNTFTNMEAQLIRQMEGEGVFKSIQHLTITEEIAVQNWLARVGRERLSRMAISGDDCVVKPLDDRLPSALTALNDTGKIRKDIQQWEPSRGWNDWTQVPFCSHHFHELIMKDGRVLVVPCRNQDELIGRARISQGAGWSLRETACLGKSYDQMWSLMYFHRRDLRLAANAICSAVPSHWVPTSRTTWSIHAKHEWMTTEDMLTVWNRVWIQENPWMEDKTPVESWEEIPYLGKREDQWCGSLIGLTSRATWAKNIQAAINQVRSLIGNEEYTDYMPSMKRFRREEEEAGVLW
Sequence of Induced myeloid leukemia cell differentiation protein Mcl-1 (Q07820 whole entry): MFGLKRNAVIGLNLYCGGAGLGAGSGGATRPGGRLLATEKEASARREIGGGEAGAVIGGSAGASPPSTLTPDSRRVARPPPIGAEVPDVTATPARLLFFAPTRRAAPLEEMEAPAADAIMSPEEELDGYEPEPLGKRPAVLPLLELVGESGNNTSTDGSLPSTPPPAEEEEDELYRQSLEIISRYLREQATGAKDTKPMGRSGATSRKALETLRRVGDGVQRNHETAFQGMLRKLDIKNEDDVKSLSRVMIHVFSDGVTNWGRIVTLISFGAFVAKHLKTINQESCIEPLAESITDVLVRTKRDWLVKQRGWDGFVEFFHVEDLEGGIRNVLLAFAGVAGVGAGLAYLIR

For `Cc1cc(C)c(NC(=O)Cn2cc3c(n2)CCCC3)c(C)c1`, the IC50 in experiment [1] is listed as 20.5 µM (not active).

For `COC(=O)c1ccc(COC(=O)c2ccccn2)cc1`, the IC50 in the experiment “cells” was 26.6 µM (active).

As for `CN(C)c1ccc(NC(=O)CN2CCN(CC(=O)Nc3ccc(F)cc3)CC2)cc1`, the concentration for half-maximal inhibition (IC50) at Large T antigen is 17.2 µM (active).

As to `CCCCCc1c2c(cc(O)c1C(=O)O)OC(=O)c1cc(C(=O)CCCC)c(OC)cc1O2`, at Genome polyprotein, the IC50 is 39 µM (active).

Regarding `COc1ccc(C(CC(=O)N2CCN(c3ccccc3)CC2)c2c(OC)cc(OC)c3ccc(=O)oc23)cc1` (centres undefined), in the experiment on H9c2, the half-inhibitory concentration (IC50) is 11.4 µM (active).

In the case of `CCOC(=O)c1cnc(SC)nc1Oc1cccc(NC(=O)c2cccc(Cl)c2Cl)c1`, the IC50 with H9c2 was > 79 µM (inactive).

Regarding `O=C(CCCn1c(SCC(=O)c2ccc(O)c(O)c2)nc2ccccc2c1=O)NCC1CCCO1` (centres undefined), in the experiment on H9c2, the IC50 is 17.4 µM (active).

For the compound `CC1CCN(C(=O)COC(=O)c2cc3ccccc3cc2O)CC1`, in “cells”, the IC50 was 0.9 µM (active).

For the compound `COc1ccccc1N1CCN(C(=O)c2ccc(CSc3ccccc3)cc2)CC1`, the IC50 in [1] is given as 8.99 µM (not active).

Turning to `COc1ccc(CCNC(=O)c2cc(C(=O)c3cc(C)ccc3O)cn(CCc3ccc(OC)cc3)c2=O)cc1`, the IC50 in the experiment on H9c2 is > 79 µM (inactive).

As for `Cn1c(=O)n(CCc2ccccc2)c(=O)c2c1nc1n2CCCN1Cc1ccccc1`, the IC50 in the experiment on H9c2 was > 79 µM (inactive).

As for `O=C(CC1SC(=O)N(c2ccccc2)C1=O)Nc1cccc2ccccc12` (centres undefined), on Large T antigen, the IC50 was 70.4 µM (active).

Turning to `CCOC(=O)c1ccc(S(=O)(=O)Nc2nc3cc(S(=O)(=O)NC4=NCCCCC4)ccc3s2)cc1`, the half-maximal inhibitory concentration (IC50) at Large T antigen is 33.4 µM (active); in experiment [2], 107 µM (active).

As for `Cc1ccc(NC(=O)CN(C)C(=O)CCCN2C(=O)c3ccccc3C2=O)cc1`, in experiment [1], the IC50 is 10.3 µM (not active).

Take `CCOC(=O)N1CCC(N2CCCC(C(=O)c3ccc4cc(OC)ccc4c3)C2)CC1` (centres undefined): the 50% effective concentration (EC50) in experiment [3] is 1.12 µM (active); in experiment [4], 56.6 µM (active). For the same compound, the 50% inhibitory concentration (IC50) in the experiment “cells” is 21.9 µM (active).

In the case of `COC(=O)COc1ccc2cc(-c3ccc(OC)cc3)c(=O)oc2c1`, the concentration for half-maximal inhibition (IC50) in the experiment “cells” is 1.12 µM (active).

`O=[N+]([O-])c1c(O)nc(/C=C\c2ccc(O)cc2)nc1O`: the AC50 in experiment [5] was 4.4 µM (active). In addition, the IC50 in experiment [2] was 50.6 µM (active).

Take `CNC(=O)c1ccc(-c2sc3nc(N4CCOCC4)c4c(c3c2N)CC(C)(C)OC4)o1`: the IC50 on Large T antigen was 2.6 µM (active); with H9c2 it was > 79 µM (inactive). Besides, the concentration at half-maximal activity (AC50) on Cytochrome P450 2D6 was 15.8 µM (inconclusive).

In the case of `O=C(Nc1cccc(C(=O)O)c1)/C(=C\C=C\c1ccccc1)NC(=O)c1ccccc1`, in experiment [1], the IC50 is 13.6 µM (not active).

Regarding `O=C1NC(Cc2ccc(O)cc2)c2nc3ccc(F)cc3c(=O)n2-c2cc3ccccc3cc21` (centres undefined), in the experiment with H9c2, the IC50 is > 79 µM (inactive).

Turning to `COc1cc(/C=N/Nc2nc3ccccc3nc2O)ccc1O`, the 50% inhibitory concentration (IC50) at Large T antigen is 18 µM (active).

For `C/C(=N\Nc1cccc(C(=O)O)c1)c1ccc2c(c1)Nc1ccccc1S2`, the results for the 50% inhibitory concentration (IC50) (in experiment [6]; at Genome polyprotein) were 0.431 µM (active) and > 100 µM (active), respectively.
